Experimental findings from patent publication US20060014734A1, “Immediate release pharmaceutical formulation” (priority 2002, published 2006) are described below.

Structures are written as SMILES.

The data set in a line: Solubility of esylate salt: final concentration of the solution after filtration. It counts as physicochemical. As for the experimental part:
A solution was prepared by dissolving excess of Compound A as esylate salt in 3 mL water followed by gently stirring over night. A final concentration of the solution after filtration was monitored to 14 mg/ml at a pH of 2.7.
A solution was prepared by dissolving 112 mg of Compound A as esylate salt in 3 mL sodium phosphate buffer followed by gently stirring over night. A final concentration of the solution after filtration was monitored to 33 mg/ml at a pH of 2.7.
A solution was prepared by dissolving 20 mg of Compound A as esylate salt in 3 mL sodium phosphate buffer followed by gently stirring over night. A final concentration of the solution after filtration was monitored to 1.6 mg/ml at a pH of 6.5.

In the case of `CCS(=O)(=O)O.CO/N=C(\N)c1ccc(CNC(=O)C2CCN2C(=O)C(O)c2cc(Cl)cc(OC(F)F)c2)cc1` (stereo not drawn) [Compound A as esylate salt], the thermodynamic solubility was found to be 33 mg/mL (pH 2.7, aqueous buffer, thermodynamic from solid, 112 mg in 3 mL sodium phosphate buffer pH 3.1 I = 0.1, stirred over night, at a pH of 2.7); 14 mg/mL (pH 2.7, thermodynamic from solid, excess salt in 3 mL water, stirred over night, at a pH of 2.7); 1.6 mg/mL (pH 6.5, aqueous buffer, thermodynamic from solid, 20 mg in 3 mL sodium phosphate buffer pH 6.9 I = 0.1, stirred over night, at a pH of 6.5).

The thermodynamic solubility is the concentration in solution at equilibrium with solid.
